For test [1], the target named is Pim-1 (Homo sapiens (Human), UniProt P11309). The test is described as follows: ADP-Glo Kinase Assay, Pim-1. Type of test: biochemical. The following applies: 1 μM compound; for inhibition at 1 µM: read-out: Pim-1 % INH (1 μM). In outline:
(§1)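 Compounds were diluted in assay buffer to 1000 nM and incubated with kinase, substrate and ATP at apparent Km. Remaining ATP was depleted, ADP converted to ATP and detected by luciferase; percent inhibition came from normalized luminescence.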

Test [2] concerns the target FLT3wt (Homo sapiens (Human), UniProt P36888). The test is described as follows: ADP-Glo Kinase Assay, Flt3 wt. In kind it is biochemical. The following applies: 1 μM compound; for inhibition at 1 µM: read-out: Flt3wt % INH (1 μM). The gist of the method:
as §1

The target of test [3] is CDK2/E (Homo sapiens (Human), UniProt P24941). The test is described as follows: ADP-Glo Kinase Assay, CDK2/E. In kind it is biochemical. The following applies: 1 μM compound; for inhibition at 1 µM: read-out: CDK2/E % INH (1 μM). In outline:
as §1

For test [4], the system named is MV4-11 cells. The test is described as follows: Growth inhibition, MTS assay, MV4-11. In kind it is cell-based, Human. The following applies: MTS cell viability, read-out: MV4-11 ED50.
Test [5] deals with HEL92 cells. The test is described as follows: Growth inhibition, MTS assay, HEL92. The following applies: MTS cell viability, read-out: HEL92 ED50. Type of test: cell-based, Human.
Test [6] deals with MOLM16 cells. The test is described as follows: Growth inhibition, MTS assay, MOLM16. In kind it is cell-based, Human. The following applies: MTS cell viability, read-out: MOLM 16 ED50. The text has this:
The following cell lines, were obtained and used in tests as outlined below: • Human myelomonocytic, biphenotypic leukemia MV4-11 cells (harboring a Flt3-ITD mutation); • Human Acute Myeloid Leukemia MOLM16 cells; • Human Acute Myeloid Leukemia MOLM13 cells (harboring a Flt3-ITD mutation); • Human Myeloid Leukemia KG-1 cells; • Human erythroleukemia HEL92 cells; • Human mantle cell lymphoma Jeko-1 cells; • Human hepatocellular carcinoma HepG2 cells; and • Human colon adenocarcinoma SW-480 cells.
The assays were carried out according to the following protocol, which is described as an example for the MV4-11 cells:
Ten thousand MV4-11 cells were inoculated into each well of a 96-well microplate (manufactured by Corning Corp.) using Iscove's MDM medium (culture medium) containing 10% fetal calf serum (FCS). The same day, a dimethyl sulfoxide (DMSO) solution of each test compound prepared in a concentration of 10 mmol/L was further diluted with DMSO to the desired concentrations (0.1, 0.5, 1, 2.5, 5 and 10 micromol/L), and the diluted solution was added to each well. The individual wells were further cultured in 5% carbon dioxide at 37° C. for 72 hours. […] Briefly, 10 μl MTS (3-(4,5-Dimethyl-2-thiazolyl)-5-(carboxymethoxyphenyl)-2-(4-sulfophenyl)-2H-tetrazolium was added to each well, and culturing was performed in 5% carbon dioxide at 37° C. for 2 hours. After this incubation and using a microplate spectrophotometer (Synergy 2 multi-mode microplate reader (BioTek)), the absorbance of each well was measured at 490 nm. The value for cells not incubated with a test compound was designated as 100%. By comparing these values with the absorbance difference obtained at the well in which each test compound was added, the cell viability (% viability) after treatment with the test compound was calculated.

For test [7], the target named is Pim-2 (Homo sapiens (Human), UniProt Q9P1W9). Kind of test: ADP-Glo Kinase Assay, Pim-2. Type of test: biochemical. The following applies: 1 μM compound; for inhibition at 1 µM: read-out: Pim-2 % INH (1 μM). The gist of the method: as §1
Test [8] deals with Pim-3 (Homo sapiens (Human), UniProt Q86V86). The test is described as follows: ADP-Glo Kinase Assay, Pim-3. In kind it is biochemical. The following applies: 1 μM compound; for inhibition at 1 µM: read-out: Pim-3 % INH (1 μM). In outline: as §1
In test [9] the target is DYRK1 (Homo sapiens (Human), UniProt Q13627). The test is described as follows: ADP-Glo Kinase Assay, DYRK1. Type of test: biochemical. The following applies: 1 μM compound; for inhibition at 1 µM: read-out: DYRK1A % INH (1 μM). The gist of the method:
as §1

Test [10] concerns HepG2 cells. Kind of test: Growth inhibition, MTS assay, HepG2. In kind it is cell-based, Human. The following applies: MTS cell viability, read-out: HepG2 ED50.
Test [11] has as its target CYP3A4 (Homo sapiens (Human), UniProt P08684). Kind of test: Cytochrome P450 inhibition, fluorescence, CYP3A4. The following applies: recombinant CYP3A4, fluorescence detection; read-out: CYP inhibition (CYP 3A4 screening, IC50 class). Type of test: in vitro ADME. As to the method: The assays for cytochrome P450 inhibition facilitate the identification of drug candidates with lower potential for drug-drug interactions (weak enzymes inhibitors). In vitro experiments were conducted to determine whether a drug inhibits a specific CYP enzyme. The experiments comprised the incubation of the drug with probe substrates for the CYP enzymes, wherein the following recombinant cytochrome P450 isoforms were employed: CYP1A2, CYP2C8, CYP2C9, CYP2C19, CYP2D6 and CYP3A4, together with various probe substrates enabling fluorescence detection. The protocol uses a single substrate concentration near the apparent Km and multiple compound concentrations.
The assay was performed in 96-well microtiter plates. The row designations were A through H and the column designations were 1 through 12. […] Each compound (see Table 6 for tested compounds) was added to the wells in column 1 and serially diluted to the wells in column 8. Wells 9 and 10 were control wells which contained no test compound (therefore no inhibition-full signal is detected.) The wells in columns 11 and 12 were blanks, where STOP solution was added prior to the addition of the enzyme/substrate mix to the NADPH regenerating system (the only signal present in these wells is background noise.) The assay was conducted in a final volume of 0.2 ml per well.
The stock solutions of the tested compounds were prepared in DMSO at 10 mM concentration. […] After mixing the compounds with solution containing NADPH-cofactors, the mixed plate was preincubated in a 37° C. incubator for at least 10 minutes; next, the fluorescence of compounds using recommended excitation/emission filters was measured in order to eliminate false results originating from autofluorescence of the compounds. In the following step, the enzyme/substrate mix was added to columns 1 through 10 and the plates were incubated at 37° C. for specific times depending on the CYP tested (incubation times ranged from 30 to 45 minutes). After adding STOP SOLUTION to all wells and respective enzyme/substrate mix to the wells in columns 11 and 12, the plate was scanned with a fluorescent plate scanner. The excitation/emission filters used for the specific assays are described in the GenTest Screening Kit instruction manual.

Test [12] deals with SW-480 cells. Kind of test: Growth inhibition, MTS assay, SW-480. In kind it is cell-based, Human. The following applies: Homo sapiens, SW480; 72 hours, MTS cell viability; read-out: SW-480 ED50.

Structures can show the parent of a compound that is named as a salt. Where two headings read alike, the source gives them in different places.

Sequence of CYP3A4 (P08684 whole entry, canonical isoform): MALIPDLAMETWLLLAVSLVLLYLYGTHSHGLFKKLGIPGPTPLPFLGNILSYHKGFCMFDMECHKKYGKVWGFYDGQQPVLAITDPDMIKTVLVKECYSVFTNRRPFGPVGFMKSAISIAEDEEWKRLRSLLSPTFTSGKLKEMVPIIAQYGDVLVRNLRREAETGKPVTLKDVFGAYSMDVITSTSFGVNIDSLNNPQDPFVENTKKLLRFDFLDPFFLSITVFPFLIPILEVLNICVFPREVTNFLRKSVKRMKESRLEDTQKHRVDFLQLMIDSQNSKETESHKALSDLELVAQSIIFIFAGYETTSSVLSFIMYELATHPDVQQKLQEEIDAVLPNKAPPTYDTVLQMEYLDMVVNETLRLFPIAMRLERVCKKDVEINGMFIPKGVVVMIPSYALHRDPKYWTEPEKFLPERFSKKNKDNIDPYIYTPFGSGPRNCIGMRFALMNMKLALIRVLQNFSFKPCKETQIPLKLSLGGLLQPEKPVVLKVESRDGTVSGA
Sequence of Pim-2 (Q9P1W9 whole entry): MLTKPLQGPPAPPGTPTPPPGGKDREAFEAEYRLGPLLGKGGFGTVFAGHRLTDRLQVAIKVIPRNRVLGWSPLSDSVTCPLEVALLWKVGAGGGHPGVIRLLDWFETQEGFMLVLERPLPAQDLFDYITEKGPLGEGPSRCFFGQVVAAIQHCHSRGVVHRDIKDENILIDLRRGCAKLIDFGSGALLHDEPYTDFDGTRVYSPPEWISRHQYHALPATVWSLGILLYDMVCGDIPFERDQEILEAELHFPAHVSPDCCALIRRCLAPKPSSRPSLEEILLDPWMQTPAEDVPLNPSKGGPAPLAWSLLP
Sequence of Pim-1 (P11309 whole entry): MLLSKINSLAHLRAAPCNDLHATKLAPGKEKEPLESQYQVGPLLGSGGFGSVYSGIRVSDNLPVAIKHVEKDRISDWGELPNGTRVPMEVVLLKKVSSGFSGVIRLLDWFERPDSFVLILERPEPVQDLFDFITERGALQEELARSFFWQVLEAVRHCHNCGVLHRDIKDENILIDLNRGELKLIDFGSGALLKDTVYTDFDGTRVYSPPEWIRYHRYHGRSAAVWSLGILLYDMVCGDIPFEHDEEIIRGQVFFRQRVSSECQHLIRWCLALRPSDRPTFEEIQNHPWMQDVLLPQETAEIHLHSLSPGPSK
Sequence of FLT3wt (P36888 27-993): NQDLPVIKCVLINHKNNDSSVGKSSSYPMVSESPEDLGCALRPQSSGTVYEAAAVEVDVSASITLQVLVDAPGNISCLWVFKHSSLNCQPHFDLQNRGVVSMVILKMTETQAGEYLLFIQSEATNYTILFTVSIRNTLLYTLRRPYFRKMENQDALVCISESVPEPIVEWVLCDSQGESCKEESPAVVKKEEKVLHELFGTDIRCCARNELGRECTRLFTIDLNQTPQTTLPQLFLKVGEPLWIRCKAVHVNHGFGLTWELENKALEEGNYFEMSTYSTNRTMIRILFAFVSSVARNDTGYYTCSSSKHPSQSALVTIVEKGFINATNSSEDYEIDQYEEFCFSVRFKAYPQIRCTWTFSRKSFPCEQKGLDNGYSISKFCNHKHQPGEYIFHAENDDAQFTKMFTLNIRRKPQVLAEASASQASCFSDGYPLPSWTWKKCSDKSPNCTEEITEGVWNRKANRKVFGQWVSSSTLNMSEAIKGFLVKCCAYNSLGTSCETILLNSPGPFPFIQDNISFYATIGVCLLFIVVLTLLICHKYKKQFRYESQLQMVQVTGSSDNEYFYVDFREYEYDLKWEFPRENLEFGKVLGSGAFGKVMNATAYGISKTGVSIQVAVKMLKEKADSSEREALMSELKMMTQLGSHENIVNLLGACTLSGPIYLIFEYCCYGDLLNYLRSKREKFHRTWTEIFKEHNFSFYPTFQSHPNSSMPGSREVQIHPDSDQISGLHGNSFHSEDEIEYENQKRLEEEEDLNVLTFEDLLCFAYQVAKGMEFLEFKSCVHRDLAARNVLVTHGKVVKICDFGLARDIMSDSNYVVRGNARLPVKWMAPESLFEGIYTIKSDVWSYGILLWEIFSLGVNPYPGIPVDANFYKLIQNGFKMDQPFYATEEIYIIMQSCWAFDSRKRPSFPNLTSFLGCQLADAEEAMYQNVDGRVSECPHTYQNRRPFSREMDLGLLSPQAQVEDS

For the compound `CC(C)n1c(C2CCCC(N)C2)nc2c([N+](=O)[O-])c(Br)c(Br)cc21` (single isomer, unassigned) [Example 26B, 3-[5,6-dibromo-4-nitro-1-(propan-2-yl)-1H-1,3-benzodiazol-2-yl]cyclohexan-1-amine], the inhibition at 1 µM is over 95% in test [1], 43% in [2] and 36% in test [3]. In addition, the IC50 was 0.4 µM in test [4] (72 hours); 6.1 µM in test [5] (72 hours); 0.1 µM in test [6] (Homo sapiens, MOLM16, 72 h).
In the case of `CC(C)n1c(C2CCCC(N)C2)nc2c([N+](=O)[O-])c(Br)c(Br)cc21` (single isomer, unassigned) [Example 26C, 3-[5,6-dibromo-4-nitro-1-(propan-2-yl)-1H-1,3-benzodiazol-2-yl]cyclohexan-1-amine], in test [1], the “Pim-1 % INH (1 μM)” value is reported as over 95%. In addition, the “Flt3wt % INH (1 μM)” value in [2] is on record as 55%. Moreover, the “CDK2/E % INH (1 μM)” value in test [3] is 55%. The IC50 in test [4] (72 hours) worked out at 0.1 µM; in [5] (72 hours), 3.0 µM; in [6] (72 hours), 0.2 µM.
Consider `CC(C)n1c(NC2CCNC2)nc2c(C#N)c(Br)c(Br)cc21` (centres unmarked) [Example 1BH], for which the inhibition at 1 µM in test [1] was 83%; in test [3], under 5%. In addition, the “Pim-2 % INH (1 μM)” value in [7] was determined as 13%. The “Pim-3 % INH (1 μM)” value in [8] is listed as 60%. Further, the “Flt3wt % INH (1 μM)” value in [2] was under 5%. For the same compound, the “DYRK1A % INH (1 μM)” value in test [9] is given as 22%. The IC50 in [4] (72 hours) is 4.6 µM; in [10] (Homo sapiens, HepG2, 72 h), 5.6 µM; in test [11] it was over 10 µM.
As for `CC(C)n1c(N2CCOC(CN)C2)nc2c(C#N)c(Br)c(Br)cc21` (centres unmarked) [Example 1BM], the inhibition at 1 µM is over 95% in test [1], 62% in test [8], under 5% in test [2] and under 5% in [3]. For the same compound, the IC50 is 4.9 µM in test [4] (Homo sapiens, MV4-11, 72 h); 4.5 µM in test [10] (Homo sapiens, HepG2, 72 h); 1.1 to 3.3 µM in [11].
As for `CCn1c(NC2CCC(N)CC2)nc2c([N+](=O)[O-])c(Br)c(Br)cc21` (centres unmarked) [Example 1DU], in test [1], the “Pim-1 % INH (1 μM)” value is listed as over 95%. Moreover, the “Flt3wt % INH (1 μM)” value in [2] was 12%. The “CDK2/E % INH (1 μM)” value in [3] was found to be 53%. In addition, the “DYRK1A % INH (1 μM)” value in [9] came out at 39%. The IC50 is 1.0 µM in test [4] (72 hours); 5.5 µM in test [5] (Homo sapiens, 72 h); 1.3 µM in test [10] (72 hours); 0.9 µM in test [6] (Homo sapiens, MOLM16, 72 h).
As for `NCCCNc1nc2c([N+](=O)[O-])c(Br)c(Br)cc2[nH]1` [Example 1D], the inhibition at 1 µM was over 95% in test [1]; 41% in test [7]; 57% in [8]; under 5% in test [2]; 21% in test [3]; 16% in test [9]. Also, the IC50 in test [4] (Homo sapiens, MV4-11, 72 h) is 5.9 µM; in test [5] (Homo sapiens, 72 h) it was 8.2 µM; in [10] (Homo sapiens, HepG2, 72 h) it was 6.2 µM; in test [12], 6.2 µM; in test [11] it was over 10 µM.
For the compound `NCCCNc1nc2c([N+](=O)[O-])c(Br)c(Br)cc2n1C1CCCC1` [Example 2H, N-(3-aminopropyl)-5,6-dibromo-1-cyclopentyl-4-nitro-1H-1,3-benzodiazol-2-amine hydrochloride], the inhibition at 1 µM was over 95% in [1]; 56% in test [7]; over 95% in test [8]; under 5% in test [2]; under 5% in test [3]; 62% in test [9]. For the same compound, the IC50 in [4] (Homo sapiens, MV4-11, 72 h) was 2 µM; in [5] (Homo sapiens, 72 h) it was 6.8 µM; in test [10] (Homo sapiens, HepG2, 72 h), 1.5 µM; in test [12] it was 1.4 µM; in [11], 3.3 to 10 µM.
For the compound `CCC(C)n1c(N2CCNCC2)nc2c([N+](=O)[O-])c(Br)c(Br)cc21` (centres unmarked) [Example 2I, 5,6-dibromo-1-(butan-2-yl)-4-nitro-2-(piperazin-1-yl)-1H-1,3-benzodiazole hydrochloride], the inhibition at 1 µM in test [1] is over 95%; in test [7], 75%; in test [8], over 95%; in test [2], 89%; in test [3] it was 60%; in test [9], over 95%. The IC50 is 0.2 µM in [4] (Homo sapiens, MV4-11, 72 h); 0.8 µM in test [5] (Homo sapiens, 72 h); 1.3 µM in test [10] (Homo sapiens, HepG2, 72 h); 3.3 to 10 µM in test [11].
For the compound `CC(C)n1c(N2CCCC(O)C2)nc2c([N+](=O)[O-])c(Br)c(Br)cc21` (centres unmarked) [Example 22G, 1-[5,6-dibromo-4-nitro-1-(propan-2-yl)-1H-1,3-benzodiazol-2-yl]piperidin-3-], the inhibition at 1 µM in [1] was over 95%; in [7], 47%; in test [8] it was 87%; in [2], 13%; in test [3] it was 5%. Besides, the IC50 in test [4] (Homo sapiens, MV4-11, 72 h) is 4.8 µM; in test [11], over 10 µM.
Turning to `CC(C)n1c(N2CCC[C@H](O)C2)nc2c([N+](=O)[O-])c(Br)c(Br)cc21` [Example 22I, (3S)-1-[5,6-dibromo-4-nitro-1-(propan-2-yl)-1H-1,3-benzodiazol-2-yl]piperidin-3-ol], the inhibition at 1 µM in test [1] was over 95%; in test [7] it was 28%; in test [8], 84%; in test [2] it was under 5%; in [3], under 5%; in [9], 20%. In addition, the IC50 in test [4] (Homo sapiens, MV4-11, 72 h) was 5.4 µM; in test [11], over 10 µM.
Regarding `CC(C)n1c(C2CCC(N)CC2)nc2c([N+](=O)[O-])c(Br)c(Br)cc21` (centres unmarked) [Example 26D, 4-[5,6-dibromo-4-nitro-1-(propan-2-yl)-1H-1,3-benzodiazol-2-yl]cyclohexan-1-amine], the values for the inhibition at 1 µM in [1], in [2] and in test [3] were over 95%, 38% and 36%, respectively. The IC50 in test [4] (Homo sapiens, MV4-11, 72 h) is 0.8 µM; in test [5] (Homo sapiens, 72 h) it was 9.7 µM; in test [6] (Homo sapiens, MOLM16, 72 h), 1 µM.

(Values after patent US10174013B2, “Benzimidazole derivatives as kinase inhibitors” (SELVITA S.A., priority 2012, dated 2019).)
